Data as given in patent US7968128B2, “Plant extract compositions for affecting sleep” (VIVA Pharmaceutical Inc., priority 2008, dated 2011).

How the values were obtained:
Assay type in all cases: in vivo, Swiss mice
mice [1] = assay: Sodium barbital induced sleep time measurement
Method: (§1) Male and female Swiss mice having weights between about 18 to 22 g were used in the Examples provided below. Mice were housed in groups of 10 mice in a breeding room having a controlled temperature of about 22±2° C. Each group had free access to standard diet pellets and tap water.
(§2) Each of the extract combinations “BS” and “BY” produced in Example 1, was prepared for oral administration (PO) by ultrasonically dispersing each extract in distilled water containing about 0.5% Tween-80. Diazepam was also prepared for administration by ultrasonically dispersing the Diazepam in distilled water containing about 0.5% Tween-80.
(§3) Each of the BY, BS, and Diazepam compositions was administered orally to separate groups of mice at a dosage of 10 mL/kg body weight.
(§4) Dosages of the BS, BY, Diazepam compositions, and the sterile distilled water were administered orally to groups of mice, wherein each group comprised at least 10 mice.
Mice were administered 90 mg/kg sodium barbital via intraperitoneal injection (ip). Mice were then positioned on their back. The time that elapsed between administration of the sodium barbital and when each animal lost their righting reflex represented the time period between latency to the onset of sleep. The BS, BY, Diazepam, and the control treatments were administered to separate groups of mice. Each group of mice received their treatment about 7 days prior to the administration of the sodium barbital. The duration of sleeping time was calculated as the time interval between the loss of righting reflex to the time of recovery of this reflex. In studying the effects of the BS and BY extracts, the comparison of the durations of sleeping time between mice receiving the BS, BY, Diazepam treatments and the control treatments, was used as the main criterion of measurement.

mice [2] = assay: Inclined plane test
Method: as §1, §2
Each of the BY, BS, and Diazepam compositions was administered orally to separate groups of mice at a dosage of 10 mL/kg body weight. […]
Effects of the BS and BY compositions on the motor functions of mice were evaluated using an inclined plane test.
The inclined plane consisted of two rectangular steel boards connected at one end by a hinge. […] The maximum inclination of the plane at which a mouse could maintain itself in position for at least 5 seconds was recorded, and interpreted to represent the mouse's functional ability. The test was performed in triplicate for each mouse and the mean value was recorded as the maximum inclination.

mice [3] = assay: Locomotor activity measurements (square arena); settings: for Locomotor activity count: dose 1 mg/kg oral, mean ± SE, n = 10
Method: as §1, §2, §3, §4
The effects of the BS treatments and the BY treatments on inhibition of central nervous system were evaluated by measurements of the locomotor activities of mice.
Each mouse was placed in the center of a square arena having dimensions of approximately 60 cm×60 cm×35 cm. […] The arena was illuminated using red 25 W bulbs on the ceiling. The total number of squares each mouse entered in a 5 minute period was recorded by an overhead video camera. The camera was linked to a monitor and video recorder in an adjacent laboratory.
The locomotor activity of the mice were recorded both before and 30-minutes, 60-minutes, 120-minutes, and 180-minutes after administration of one of BS, BY, Diazepam, and the control.
All locomotor activity recordings were carried out with the observer unaware of the treatment that was administered to each of the mice.

mice [4] = assay: Traction test
Method: as §1
Each of the extract combinations “BS” and “BY” produced in Example 1, was prepared for oral administration (PO) by ultrasonically dispersing each extract in distilled water containing about 0.5% Tween-80. Diazepam was also prepared for administration by ultrasonically dispersing the Diazepam in distilled water containing about 0.5% Tween-80. […]
The effects of the BS and BY compositions on inhibition of muscle coordination systems were evaluated using a traction test.
A wire having a diameter of about 1.6 mm and length of about 30 cm was stretched and secured horizontally at a height of about 30 cm above a surface. […] The duration of time each mouse clung to the wire was recorded up to a maximum of 60 seconds.
The test was performed about 60 minutes after the administration of one of the BS, BY, Diazepam, and the control compositions. […] The durations of clinging time measured for each group of mice were calculated using the mean value of triplicates for each mouse. If the duration of clinging time was greater than 60 seconds, the mouse was released from the wire, and the clinging time was recorded 60 seconds.

[5] = dose 1.0 mg/kg oral, sodium barbital 90 mg/kg ip, mean ± SE, n = 10

CN1C(=O)CN=C(c2ccccc2)c2cc(Cl)ccc21 [Diazepam]
sodium barbital-induced sleeping time compared to the controls (in words) (mice [1]; dosage 1.0 mg/kg): significantly prolonged
Duration of Sleep (mice [1]; [5]): 72.8 ± 7.5 min
Sleep latency (mice [1]; [5]): 169.1 ± 12.4 s
Maximum inclination (mice [2]; dose 9 mg/kg oral, position held at least 5 seconds, mean ± SE, n = 10): 51.5 ± 0.9 degrees
degrees of inclination compared to control (in words) (mice [2]; doses of Table 4): markedly reduced
effects on the locomotor activity of the mice (in words) (mice [3]; all doses and times of Table 2): None of the BS, BY and Diazepam compositions had any significant effects
Locomotor activity count (mice [3]; 0 minutes (before administration), squares entered in 5 min): 80.4 ± 6.7
Locomotor activity count (mice [3]; 30 minutes after administration): 68.9 ± 4.9
Locomotor activity count (mice [3]; 60 minutes after administration): 56.7 ± 3.8
Locomotor activity count (mice [3]; 120 minutes after administration): 52.6 ± 3.6
Locomotor activity count (mice [3]; 180 minutes after administration): 47.6 ± 3.4
Duration of clinging (mice [4]; dose 9 mg/kg oral, about 60 minutes after administration, maximum 60 seconds, mean ± SE, n = 10): 19.6 ± 4.9 s
durations of clinging time compared to control (in words) (mice [4]; doses of Table 3): markedly reduced
